ChEMBL document CHEMBL1153358, “Amide analogs of antifungal dioxane-triazole derivatives: synthesis and in vitro activities” (Bioorg Med Chem Lett, 2009)
In brackets after ≈: the same amount, converted by molar mass.

system: Candida albicans; assay: Antifungal activity against fluconazole-resistant Candida albicans TIMM3164; format: functional

Going from `C[C@@H](S[C@H]1CO[C@H](/C=C/C(=O)Nc2ccc(F)cc2)OC1)[C@](O)(Cn1cncn1)c1ccc(F)cc1F` to `C[C@@H](S[C@H]1CO[C@H](/C=C/C=C/c2ccc(F)cc2)OC1)[C@](O)(Cn1cncn1)c1ccc(F)cc1F`, the MIC falls from 0.125 µg/mL (≈ 0.234 µM) to 0.063 µg/mL (≈ 0.122 µM) (2-fold).

Going from `CC(=O)c1ccc(NC(=O)c2ccc([C@H]3OC[C@H](S[C@H](C)[C@](O)(Cn4cncn4)c4ccc(F)cc4F)CO3)cc2)cc1` to `C[C@@H](S[C@H]1CO[C@H](c2ccc(C(=O)Nc3ccc(Cl)cc3)cc2)OC1)[C@](O)(Cn1cncn1)c1ccc(F)cc1F`, the MIC falls from 0.031 µg/mL (≈ 0.0509 µM) to at most 0.008 µg/mL.

First: C[C@@H](S[C@H]1CO[C@H](c2ccc(C(=O)Nc3ccc(C#N)c(C#N)c3)cc2)OC1)[C@](O)(Cn1cncn1)c1ccc(F)cc1F
Second: C[C@@H](S[C@H]1CO[C@H](c2ccc(C(=O)Nc3ccncc3)cc2)OC1)[C@](O)(Cn1cncn1)c1ccc(F)cc1F
The MIC of the first is 1.9-fold lower: 0.016 µg/mL (≈ 0.0259 µM) for the first, 0.031 µg/mL (≈ 0.0546 µM) for the second.

`C[C@@H](S[C@H]1CO[C@H](c2ccc(C(=O)N3CCOCC3)cc2)OC1)[C@](O)(Cn1cncn1)c1ccc(F)cc1F` was tested, and the MIC was 0.25 µg/mL (≈ 0.446 µM).

system: Aspergillus flavus; assay: Antifungal activity against Aspergillus flavus SANK 18497; format: functional

Going from `C[C@@H](S[C@H]1CO[C@H](/C=C/C(=O)Nc2ccc(F)cc2)OC1)[C@](O)(Cn1cncn1)c1ccc(F)cc1F` to `C[C@@H](S[C@H]1CO[C@H](/C=C/C=C/c2ccc(F)cc2)OC1)[C@](O)(Cn1cncn1)c1ccc(F)cc1F`, the MIC falls from 4 µg/mL (≈ 7.48 µM) to 0.25 µg/mL (≈ 0.483 µM) (16-fold).

Compared with `CC(=O)c1ccc(NC(=O)c2ccc([C@H]3OC[C@H](S[C@H](C)[C@](O)(Cn4cncn4)c4ccc(F)cc4F)CO3)cc2)cc1`, `C[C@@H](S[C@H]1CO[C@H](c2ccc(C(=O)Nc3ccc(Cl)cc3)cc2)OC1)[C@](O)(Cn1cncn1)c1ccc(F)cc1F` is 2-fold lower in MIC: 0.25 µg/mL (≈ 0.411 µM) for the first, 0.125 µg/mL (≈ 0.208 µM) for the second.

Compared with `C[C@@H](S[C@H]1CO[C@H](c2ccc(C(=O)Nc3ccc(C#N)c(C#N)c3)cc2)OC1)[C@](O)(Cn1cncn1)c1ccc(F)cc1F`, `C[C@@H](S[C@H]1CO[C@H](c2ccc(C(=O)Nc3ccncc3)cc2)OC1)[C@](O)(Cn1cncn1)c1ccc(F)cc1F` is 2-fold lower in MIC: 0.5 µg/mL (≈ 0.811 µM) for the first, 0.25 µg/mL (≈ 0.44 µM) for the second.

`C[C@@H](S[C@H]1CO[C@H](c2ccc(C(=O)N3CCOCC3)cc2)OC1)[C@](O)(Cn1cncn1)c1ccc(F)cc1F` gave an MIC of over 4 µg/mL.

system: Candida albicans; assay: Antifungal activity against Candida albicans SANK 51486; format: functional

`C[C@@H](S[C@H]1CO[C@H](/C=C/C(=O)Nc2ccc(F)cc2)OC1)[C@](O)(Cn1cncn1)c1ccc(F)cc1F` and `C[C@@H](S[C@H]1CO[C@H](/C=C/C=C/c2ccc(F)cc2)OC1)[C@](O)(Cn1cncn1)c1ccc(F)cc1F` cannot be ordered by MIC: under 0.008 µg/mL for the first, at most 0.008 µg/mL for the second.

`CC(=O)c1ccc(NC(=O)c2ccc([C@H]3OC[C@H](S[C@H](C)[C@](O)(Cn4cncn4)c4ccc(F)cc4F)CO3)cc2)cc1` and `C[C@@H](S[C@H]1CO[C@H](c2ccc(C(=O)Nc3ccc(Cl)cc3)cc2)OC1)[C@](O)(Cn1cncn1)c1ccc(F)cc1F` cannot be ordered by MIC: at most 0.008 µg/mL for the first, at most 0.008 µg/mL for the second.

`C[C@@H](S[C@H]1CO[C@H](c2ccc(C(=O)Nc3ccc(C#N)c(C#N)c3)cc2)OC1)[C@](O)(Cn1cncn1)c1ccc(F)cc1F` and `C[C@@H](S[C@H]1CO[C@H](c2ccc(C(=O)Nc3ccncc3)cc2)OC1)[C@](O)(Cn1cncn1)c1ccc(F)cc1F` cannot be ordered by MIC: at most 0.008 µg/mL for the first, at most 0.008 µg/mL for the second.

With `C[C@@H](S[C@H]1CO[C@H](c2ccc(C(=O)N3CCOCC3)cc2)OC1)[C@](O)(Cn1cncn1)c1ccc(F)cc1F` the MIC was 0.063 µg/mL (≈ 0.112 µM).

system: Cryptococcus neoformans; assay: Antifungal activity against Cryptococcus neoformans TIMM 1855; format: functional

Compared with `C[C@@H](S[C@H]1CO[C@H](/C=C/C(=O)Nc2ccc(F)cc2)OC1)[C@](O)(Cn1cncn1)c1ccc(F)cc1F`, `C[C@@H](S[C@H]1CO[C@H](/C=C/C=C/c2ccc(F)cc2)OC1)[C@](O)(Cn1cncn1)c1ccc(F)cc1F` is 7.8-fold lower in MIC: 0.125 µg/mL (≈ 0.234 µM) for the first, 0.016 µg/mL (≈ 0.0309 µM) for the second.

Compared with `CC(=O)c1ccc(NC(=O)c2ccc([C@H]3OC[C@H](S[C@H](C)[C@](O)(Cn4cncn4)c4ccc(F)cc4F)CO3)cc2)cc1`, `C[C@@H](S[C@H]1CO[C@H](c2ccc(C(=O)Nc3ccc(Cl)cc3)cc2)OC1)[C@](O)(Cn1cncn1)c1ccc(F)cc1F` is 7.8-fold lower in MIC: 0.125 µg/mL (≈ 0.205 µM) for the first, 0.016 µg/mL (≈ 0.0266 µM) for the second.

First: C[C@@H](S[C@H]1CO[C@H](c2ccc(C(=O)Nc3ccc(C#N)c(C#N)c3)cc2)OC1)[C@](O)(Cn1cncn1)c1ccc(F)cc1F
Second: C[C@@H](S[C@H]1CO[C@H](c2ccc(C(=O)Nc3ccncc3)cc2)OC1)[C@](O)(Cn1cncn1)c1ccc(F)cc1F
The MIC of the first is 2-fold lower: 0.063 µg/mL (≈ 0.102 µM) for the first, 0.125 µg/mL (≈ 0.22 µM) for the second.

Compound `C[C@@H](S[C@H]1CO[C@H](c2ccc(C(=O)N3CCOCC3)cc2)OC1)[C@](O)(Cn1cncn1)c1ccc(F)cc1F` has an MIC of 0.125 µg/mL (≈ 0.223 µM).

system: Nakaseomyces glabratus; assay: Antifungal activity against Candida glabrata ATCC 90030; format: functional

Compared with `C[C@@H](S[C@H]1CO[C@H](/C=C/C(=O)Nc2ccc(F)cc2)OC1)[C@](O)(Cn1cncn1)c1ccc(F)cc1F`, `C[C@@H](S[C@H]1CO[C@H](/C=C/C=C/c2ccc(F)cc2)OC1)[C@](O)(Cn1cncn1)c1ccc(F)cc1F` is 4-fold lower in MIC: 4 µg/mL (≈ 7.48 µM) for the first, 1 µg/mL (≈ 1.93 µM) for the second.

`CC(=O)c1ccc(NC(=O)c2ccc([C@H]3OC[C@H](S[C@H](C)[C@](O)(Cn4cncn4)c4ccc(F)cc4F)CO3)cc2)cc1` and `C[C@@H](S[C@H]1CO[C@H](c2ccc(C(=O)Nc3ccc(Cl)cc3)cc2)OC1)[C@](O)(Cn1cncn1)c1ccc(F)cc1F` cannot be ordered by MIC: over 4 µg/mL for the first, over 4 µg/mL for the second.

`C[C@@H](S[C@H]1CO[C@H](c2ccc(C(=O)Nc3ccc(C#N)c(C#N)c3)cc2)OC1)[C@](O)(Cn1cncn1)c1ccc(F)cc1F` and `C[C@@H](S[C@H]1CO[C@H](c2ccc(C(=O)Nc3ccncc3)cc2)OC1)[C@](O)(Cn1cncn1)c1ccc(F)cc1F` cannot be ordered by MIC: over 4 µg/mL for the first, over 4 µg/mL for the second.

`C[C@@H](S[C@H]1CO[C@H](c2ccc(C(=O)N3CCOCC3)cc2)OC1)[C@](O)(Cn1cncn1)c1ccc(F)cc1F` showed an MIC of over 4 µg/mL.

system: Candida tropicalis; assay: Antifungal activity against Candida tropicalis ATCC 750; format: functional

First: C[C@@H](S[C@H]1CO[C@H](/C=C/C(=O)Nc2ccc(F)cc2)OC1)[C@](O)(Cn1cncn1)c1ccc(F)cc1F
Second: C[C@@H](S[C@H]1CO[C@H](/C=C/C=C/c2ccc(F)cc2)OC1)[C@](O)(Cn1cncn1)c1ccc(F)cc1F
The MIC of the first is 2-fold lower: 0.125 µg/mL (≈ 0.234 µM) for the first, 0.25 µg/mL (≈ 0.483 µM) for the second.

Going from `CC(=O)c1ccc(NC(=O)c2ccc([C@H]3OC[C@H](S[C@H](C)[C@](O)(Cn4cncn4)c4ccc(F)cc4F)CO3)cc2)cc1` to `C[C@@H](S[C@H]1CO[C@H](c2ccc(C(=O)Nc3ccc(Cl)cc3)cc2)OC1)[C@](O)(Cn1cncn1)c1ccc(F)cc1F`, the MIC falls from 0.125 µg/mL (≈ 0.205 µM) to 0.016 µg/mL (≈ 0.0266 µM) (7.8-fold).

Compared with `C[C@@H](S[C@H]1CO[C@H](c2ccc(C(=O)Nc3ccc(C#N)c(C#N)c3)cc2)OC1)[C@](O)(Cn1cncn1)c1ccc(F)cc1F`, `C[C@@H](S[C@H]1CO[C@H](c2ccc(C(=O)Nc3ccncc3)cc2)OC1)[C@](O)(Cn1cncn1)c1ccc(F)cc1F` is 4-fold higher in MIC: 0.031 µg/mL (≈ 0.0503 µM) for the first, 0.125 µg/mL (≈ 0.22 µM) for the second.

`C[C@@H](S[C@H]1CO[C@H](c2ccc(C(=O)N3CCOCC3)cc2)OC1)[C@](O)(Cn1cncn1)c1ccc(F)cc1F` gave an MIC of 1 µg/mL (≈ 1.78 µM).

system: Aspergillus fumigatus; assay: Antifungal activity against Aspergillus fumigatus SANK 10569; format: functional

First: C[C@@H](S[C@H]1CO[C@H](/C=C/C(=O)Nc2ccc(F)cc2)OC1)[C@](O)(Cn1cncn1)c1ccc(F)cc1F
Second: C[C@@H](S[C@H]1CO[C@H](/C=C/C=C/c2ccc(F)cc2)OC1)[C@](O)(Cn1cncn1)c1ccc(F)cc1F
The MIC of the first is 7.9-fold higher: 0.5 µg/mL (≈ 0.935 µM) for the first, 0.063 µg/mL (≈ 0.122 µM) for the second.

`CC(=O)c1ccc(NC(=O)c2ccc([C@H]3OC[C@H](S[C@H](C)[C@](O)(Cn4cncn4)c4ccc(F)cc4F)CO3)cc2)cc1` and `C[C@@H](S[C@H]1CO[C@H](c2ccc(C(=O)Nc3ccc(Cl)cc3)cc2)OC1)[C@](O)(Cn1cncn1)c1ccc(F)cc1F` are the same in MIC: 0.063 µg/mL (≈ 0.104 µM) for the first, 0.063 µg/mL (≈ 0.105 µM) for the second.

`C[C@@H](S[C@H]1CO[C@H](c2ccc(C(=O)Nc3ccc(C#N)c(C#N)c3)cc2)OC1)[C@](O)(Cn1cncn1)c1ccc(F)cc1F` and `C[C@@H](S[C@H]1CO[C@H](c2ccc(C(=O)Nc3ccncc3)cc2)OC1)[C@](O)(Cn1cncn1)c1ccc(F)cc1F` are the same in MIC: 0.25 µg/mL (≈ 0.405 µM) for the first, 0.25 µg/mL (≈ 0.44 µM) for the second.

In the case of `C[C@@H](S[C@H]1CO[C@H](c2ccc(C(=O)N3CCOCC3)cc2)OC1)[C@](O)(Cn1cncn1)c1ccc(F)cc1F`, the MIC is reported as 4 µg/mL (≈ 7.13 µM).
